The values that follow come from BindingDB's records for doi:10.1016/j.bioorg.2015.03.004 (Suez Canal University, 2015).

This test addresses Vascular endothelial growth factor receptor 2 (Homo sapiens, UniProt P35968). As to the kind of experiment: ADP-GloTM Assay. Here is the method: The protein kinase assays used to determine IC50 value were performed using ADP-GloTM assay kit. The assay was started by incubating the reaction mixture in a 96-well plate at 30 °C for 30 min. After the 30 min incubation period, the assay was terminated by the addition of […] of ADPGloTM Reagent. The 96-well plate was shaken and then incubated for 40 min at ambient temperature, […] of kinase detection reagent was added, the 96-well reaction plate was then read using ADP-GloTM luminescences protocol on GloMaxTM plate reader. Blank control waqs set up that included all the assay components except the addition of appropriate substrate (replace with equal volume of kinase assay buffer).

Vascular endothelial growth factor receptor 2, sequence (P35968 whole entry): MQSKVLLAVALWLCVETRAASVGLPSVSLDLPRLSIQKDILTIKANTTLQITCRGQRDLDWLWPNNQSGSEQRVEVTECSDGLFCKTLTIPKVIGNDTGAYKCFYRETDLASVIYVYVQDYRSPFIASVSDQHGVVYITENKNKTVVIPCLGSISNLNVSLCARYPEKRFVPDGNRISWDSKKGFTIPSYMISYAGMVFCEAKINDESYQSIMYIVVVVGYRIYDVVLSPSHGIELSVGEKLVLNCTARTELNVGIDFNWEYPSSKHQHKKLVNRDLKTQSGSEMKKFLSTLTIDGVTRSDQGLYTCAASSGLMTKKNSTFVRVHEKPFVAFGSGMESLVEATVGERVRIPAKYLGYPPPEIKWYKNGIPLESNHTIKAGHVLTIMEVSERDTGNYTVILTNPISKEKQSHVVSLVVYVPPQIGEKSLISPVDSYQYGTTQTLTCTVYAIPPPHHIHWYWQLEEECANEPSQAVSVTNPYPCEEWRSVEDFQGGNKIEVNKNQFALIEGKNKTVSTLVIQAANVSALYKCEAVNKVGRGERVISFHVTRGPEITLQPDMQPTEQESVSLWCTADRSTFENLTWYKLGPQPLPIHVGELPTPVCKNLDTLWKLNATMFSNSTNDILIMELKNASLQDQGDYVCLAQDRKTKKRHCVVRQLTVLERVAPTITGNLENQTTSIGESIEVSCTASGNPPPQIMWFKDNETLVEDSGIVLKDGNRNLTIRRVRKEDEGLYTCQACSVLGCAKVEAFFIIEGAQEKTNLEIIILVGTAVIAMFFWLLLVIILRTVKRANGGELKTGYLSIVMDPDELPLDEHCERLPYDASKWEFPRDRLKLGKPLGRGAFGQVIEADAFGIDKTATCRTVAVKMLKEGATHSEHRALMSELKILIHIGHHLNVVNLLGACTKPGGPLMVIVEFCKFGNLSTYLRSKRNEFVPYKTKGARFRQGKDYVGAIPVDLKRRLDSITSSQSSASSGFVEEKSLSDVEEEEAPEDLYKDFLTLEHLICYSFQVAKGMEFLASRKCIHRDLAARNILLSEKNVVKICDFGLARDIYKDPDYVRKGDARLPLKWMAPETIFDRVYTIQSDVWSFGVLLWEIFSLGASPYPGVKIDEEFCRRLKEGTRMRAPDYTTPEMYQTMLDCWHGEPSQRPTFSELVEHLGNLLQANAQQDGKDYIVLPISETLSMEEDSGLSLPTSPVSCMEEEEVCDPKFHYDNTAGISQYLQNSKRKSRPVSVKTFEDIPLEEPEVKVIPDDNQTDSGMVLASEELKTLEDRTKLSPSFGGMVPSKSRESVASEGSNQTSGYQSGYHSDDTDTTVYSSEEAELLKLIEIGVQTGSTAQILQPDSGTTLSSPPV

What is called IC50 is the concentration that gives 50% inhibition. `Cc1cc(C)c2c(Nc3ncnc4c3sc3nc(C)cc(C)c34)csc2n1` [N-(4,6-dimethylthieno[2,3-b]pyridine)-7,9-dimethylpyrido[30,20:4,5]thieno[3,2-d]pyrimidin-4-amine (9d)]: the IC50 is 2600 nM.
